Patent US10960036B2, “Pharmaceutical composition for preventing and treating alpha herpes virus infection, containing, as active ingredient, Elaeocarpus sylvestris extract or fraction thereof” (priority 2016, dated 2021)

tested on: varicella-zoster virus (VZV); test: Expression of VZV replication-related genes (gB, ORF62) in infected MRC-5 cells, real-time PCR; format: cell-based; details: 50 μg/mL, 3 days after infection
Description: Viruses used to measure anti-replication activity were varicella-zoster virus (VZV), herpes simplex virus-1 (HSV-1) and herpes simplex virus-2 (HSV-2), which were obtained from the American Type Culture Collection (ATCC), and MRC-5 and Vero cells were also obtained from the ATCC and cultured. In a 5% CO2 incubator at 37° C., Vero cells were cultured in RPMI1640 medium containing 10% fetal bovine serum and 25 mM HEPES (2-[4-(2-hydroxyethyl) piperazin-1-yl] ethanesulfonic acid), and MRC-5 cells were cultured in MEM medium containing 10% fetal bovine serum and 25 mM HEPES.
Next, on 3 days after the infection, the cells were collected, and the inhibitory effect on viral replication was analyzed by real-time PCR using VZV glycoprotein B (gB) and open reading frame 62 (ORF62) DNAs.
MRC-5 cells were infected with VZV by culturing them with VZV-infected cells at a cell-to-cell ratio of 1:8, and treated with the Elaeocarpus sylvestris extract and its fractions (extract, hexane (Hx), dichloromethane (MC), ethyl acetate (EA), butanol (BuOH), and distilled water (DW) 50 μg/mL). On 3 days after the infection, the cells were collected, and the inhibitory effect against viral replication was analyzed by real-time PCR using VZV glycoprotein B (gB) and open reading frame 62 (ORF62) DNAs.
In order to analyze the VZV replication inhibitory effect and target of Elaeocarpus sylvestris extract components, MRC-5 cells were infected with VZV by culturing them with VZV-infected cells at a cell-to-cell ratio of 1:8, and treated with 50 μg/mL of each of Elaeocarpus sylvestris extract fractions (DS-1, DS-2, DS-3 and DS-4). On 3 days after the infection, the cells were collected, and the viral replication inhibitory effect of the fractions was analyzed by real-time PCR using VZV glycoprotein B (gB) and open reading frame 62 (ORF62) DNAs.

Compound	expression of VZV glycoprotein B (gB)	expression of VZV open reading frame 62 (ORF62)
Casuarictin [DS-4]	decreased	decreased
COC(=O)c1cc(O)c(O)c(O)c1 (single isomer, unassigned) [DS-2, Methyl gallate]	decreased	decreased
COC(=O)c1cc(O)c(O)c(O)c1 (single isomer, unassigned) [DS-1, Methyl gallate]	decreased	decreased
O=C1O[C@H]2[C@@H]3OC(=O)c4cc(O)c(O)c(O)c4-c4c(cc(O)c(O)c4O)C(=O)OC[C@H]2O[C@@H](OC(=O)c2cc(O)c(O)c(O)c2)[C@@H]3OC(=O)c2cc(O)c(O)c3c2[C@@H]2C1=CC(=O)[C@](O)(O3)C2(O)O [DS-3, Geraniin]	decreased	decreased
